{"source": "patent US11478008B2", "about": "“Formulations comprising ratfish liver oil or a product of an enzymatic or chemical glycerolysis processing of ratfish liver oil and supercritical rosemary extract and uses thereof” (UNIVERSIDAD AUTÓNOMA DE MADRID, priority 2016, dated 2022)", "system": "human pancreatic cancer cell cultures (line MiaPaca-2)", "assay": "MTT cell viability assay, human pancreatic cancer cells MiaPaca-2", "type": "cell-based", "details": "1%", "procedure": "The antiproliferative activity of the lipid systems (RLO, RLO+MO and GP), formulations with incorporated SRE (RLO+MO+9% SRE and GP+9% SRE) and (digested and non-digested) non-delivered SRE was evaluated in human pancreatic cancer cell cultures (line MiaPaca-2) by means of the MTT method.\nThree independent experiments were performed with different cell strains and on different days. The trend observed in terms of the effect of treatments on cell viability was similar in the 3 experiments.\nThe parameter used to assess the effect of a compound on cell viability is the mean inhibitory concentration (IC50), which is the product concentration inhibiting cell viability by 50%, such that the lower the IC50 of a compound is, the greater its effect will be."}
{"smiles": "O=C1CCCC1", "note": "[cyclopentanone]", "values": [{"measurement": "viability of treated cells", "value": "did not change"}]}
